Several values for one entry are separate records, joined by “and”; a condition that tells them apart may be missing. Equal entries are not always repeated. Where two headings read alike, the source gives them in different places.
Assays:
Jurkat = assay: MTT cytotoxicity assay; assay type: cell-based; conditions: Homo sapiens, Jurkat ATCC TIB-152, 48 h, read-out: IC50 ± SD, Jurkat
Experimental: (§1) Then, each diluted molecule was added to the cells and incubated for further 48 h at 37 °C, 5% CO2. […] The DMSO was then added to dissolve the formed formazan crystals and absorbance was determined spectrophotometrically at 570 nm. […] IC50 values were expressed as the mean ± standard deviation (M ± SD) of two independent experiments done in quadruplicate.

HeLa = assay: MTT cytotoxicity assay; assay type: cell-based; conditions: Homo sapiens, HeLa ATCC CRL-1958, 48 h, read-out: IC50 ± SD, HeLa
Experimental: as §1

[1] = test system: Human Herpesvirus type 2 (HHV-2); assay: End-point titration technique (EPTT), anti-herpetic screening on infected Vero cells; assay type: cell-based, Human Herpesvirus 2; conditions: for Rf (reduction factor of the viral titer), HHV-2: 10 TCID50, 48 h; for minimal effective concentration: Human alphaherpesvirus 2, 10 TCID50, 48 h, tested 6.25-50 µg/mL, read-out: 10 TCID50: non-toxic concentration that showed viral reduction factor, HHV-2
Experimental: (§2) The in vitro antiviral evaluation of the 27 substances against Human Herpesvirus type 1 (HHV-1) and 2 (HHV-2) was made on infected Vero cells, using the end-point titration technique (EPTT).
(§3) The antiviral activity of molecules against 1 and 10 Cell Culture Infectious Dose 50% (10TCID50) of HHV-1 and HHV-2, respectively, was determined using end-point titration technique (EPTT). Vero cells grown in 96-well plates at a density of 2.0 × 10^4 cells/well were incubated at 37 °C in 5% CO2 atmosphere until constitute 80% of cell monolayer. Then, viral suspensions of HHV-1 or HHV-2 with concentrations of 6.25 µg/mL to 50 µg/mL of compounds were performed in DMEM supplemented with 2% FBS containing 1% and 0.5% carboxymethylcellulose (CMC) for HHV-1 and HHV-2, respectively. Mixture was incubated during 15 minutes at room temperature and was added to the cell monolayer. After 48 h of incubation at 37 °C (5% CO2), the cytopathic effect was examined, the microplates were fixed with 3.5% formaldehyde and stained with 0.2% crystal violet. Two independent experiments by quadruplicate for each viral serotype and each were carried out. Positive controls, such as dextran sulfate (DS) and acyclovir (A) for early stages and late stages of infection, respectively, were included.

Vero = assay: MTT cytotoxicity assay, non-tumor cells; assay type: cell-based, Cercopithecus aethiops; conditions: for IC50: Chlorocebus sabaeus
Experimental: The in vitro cytotoxicity evaluation of quinones was performed using the 3-(4,5 dimethylthiazol-2-yl)-2,5-diphenyltetrazolium bromide (MTT, Sigma, Cream Ridge, NJ, USA) assay as described by Betancur-Galvis et al. 2002 [22]. Briefly, Vero and HeLa cell lines were seeded at 2.0 × 10^3 cells per well of 96-well plates in DMEM supplemented with 10% of inactivated FBS, and were incubated for 24 h at 37 °C, 5% CO2. Then, each diluted molecule was added to the cells and incubated for further 48 h at 37 °C, 5% CO2. Jurkat cell line at 3 × 10^3 cells per well in a 96-well round-bottomed plate and diluted substances in RPMI-1640 medium (Sigma) supplemented with 10% FBS were plated simultaneously. After 48 h of treatment at 37 °C, 5% CO2, the media was carefully removed and 28 µL of MTT solution (4 mg/mL) was added to each well, and the plates were incubated for 2 h at 37 °C, 5% CO2. The DMSO was then added to dissolve the formed formazan crystals and absorbance was determined spectrophotometrically at 570 nm.
The minimal dilution of compound that caused 50% inhibition of the cells (IC50) was calculated by linear regression analysis of the dose-response curves generated from the absorbance data with the statistical GraphPad Prisma 5.0. IC50 values were expressed as the mean ± standard deviation (M ± SD) of two independent experiments done in quadruplicate.

[2] = test system: Human Herpesvirus type 1 (HHV-1); assay: End-point titration technique (EPTT), anti-herpetic screening on infected Vero cells; assay type: cell-based; conditions: for minimal effective concentration: Human alphaherpesvirus 1, 1 TCID50, 48 h, tested 6.25-50 µg/mL, read-out: 1 TCID50: non-toxic concentration that showed viral reduction factor, HHV-1; for Rf (reduction factor of the viral titer), HHV-1: 1 TCID50, 48 h
Experimental: as §2, §3

HHV-1 [3] = assay: Plaque reduction assay, simultaneous and post-infection treatment, Vero cells; assay type: cell-based, Human Herpesvirus 1
Experimental: (§4) To define the stage of the viral replicative cycle where NQ 4 exerts its action, simultaneous and post-infection treatments against HHV-1 and HHV-2 were performed. […] First, we determined the inhibitory concentration 50% (IC50) for the compound and drug positive controls on infected cells and their effects on non-tumoral Vero cells, to define the concentration of evaluation and to calculate the antiviral selectivity index (SI). Then, the concentration of NQ 4 that reduced the number of viral plaques by 50% (EC50) was determined from the dose-response curves.
(§5) The potential antiviral mechanism of NQ 4 was evaluated by the plaque reduction assay as previously described by us. Vero cell monolayers grown in 24-well plates were infected with 100 PFU/well of each virus. For simultaneous treatment, the compound and the virus were added simultaneously to the cell monolayers and incubated for 1 h at 37 °C (5% CO2). Then, cells were washed with phosphate buffered saline (PBS, pH = 7.0) and CMC at 1% and 0.75% was added for HHV-1 and HHV-2, respectively. In post-infection treatment, virus was added to cell monolayer and incubated for 1 h at 37 °C (5% CO2). After incubation, washing was performed with PBS and molecule previously prepared in CMC 1% and 0.75% for HHV-1 and HHV-2 respectively, was added. In both treatments, NQ 4 was prepared at concentrations from 0.4 µg/mL to 3.1 µg/mL and the cell monolayers allowed to incubate for 72 h. Subsequently, cells were fixed and stained with a solution of 3.5% formaldehyde with 0.2% crystal violet, and the viral plaques were counted. Dextran sulfate (DS) was included as positive control in simultaneous assay and acyclovir (A) was the positive control in after infection treatment.

HHV-2 = assay: as above; assay type: cell-based, Human Herpesvirus 2
Experimental: as §4, §5

HHV-1 [4] = assay: HHV-1 viral entry assay on Vero cells (plaque reduction); assay type: cell-based, Human Herpesvirus 1; conditions: 0.1–0.8 µg/mL
Experimental: (§6) The effect of NQ 4 in the initial phases of the HHV-1 viral replication was done as previously described by Cardozo et al., 2011 [53]. In the attachment assay, pre-chilled (1 h at 4 °C) Vero cell monolayers were exposed to viruses (100 PFU/well) in presence or absence of the compound and were incubated for 2 h at 4 °C. After incubation, the substance and unbounded viruses were removed with cold PBS; cells were overlaid with CMC 1% and incubated for 72 h at 37 °C (5% CO2). In the entry assay, pre-chilled cells were infected with viruses (100 PFU/well) and incubated for 2 h at 4 °C. After this time, the unbound viruses were removed with cold PBS; cells were treated with different concentrations of pre-warmed compound, and then incubated for 1 h at 37 °C. Unabsorbed viruses were inactivated using citrate buffer (pH = 3.0) and then cells were washed with PBS, overlaid with CMC 1%, and incubated for 72 h at 37 °C (5% CO2). In both assays, further procedures were the same mentioned previously for the plaque reduction assay and dextran sulfate (DS) was included as positive control.
(§7) In these tests, the evaluated NQ 4 concentration range was from 0.1 to 0.8 µg/mL and the effective concentration fifty (EC50), the concentration that reduces the 50% of plaque forming units, was determined from dose-effect curves by linear regression methods for each compound. […]

DENV-2 = assay: Plaque reduction assay, simultaneous and post-infection treatment, BHK-21 cells; assay type: cell-based, Dengue virus type 2
Experimental: as §4
Against DENV, the effect of NQ 4 either simultaneously or post-infection was also evaluated by the plaque reduction assay as previously described. Concentrations employed for this assay were from 0.4 µg/mL to 1.6 µg/mL. In this test, BHK-21 cell monolayers grown in 24-well plates were infected with 100 PFU/well of DENV-2 and treatments were performed in the same way to describe for Herpesviruses. Moreover, the monolayers were incubated for 6 days, fixed and stained with a solution of 3.5% formaldehyde with 0.2% crystal violet, and the viral plaques were counted. Heparin (H) was included as a positive control in the simultaneous assay, and ribavirin (R) was the positive control in after infection treatment.

HHV-1 [5] = assay: HHV-1 viral attachment assay on Vero cells (plaque reduction); assay type: cell-based, Human Herpesvirus 1; conditions: Human alphaherpesvirus 1, Vero
Experimental: as §6, §7

[6] = Vero ATCC CCL-81, 48 h, MTT, read-out: IC50 ± SD, Vero
[7] = post-infective stages, acyclovir 1.5 µg/mL
[8] = simultaneous treatment, PFU, NQ 4 0.4–3.1 µg/mL, DS 5 µg/mL

CC(C)=CCCc1ccc2c(c1)C(=O)C=CC2=O [NQ 1]
IC50 (Jurkat): > 104 µM | IC50 (HeLa): > 104 µM

CC1(C)CCCc2cc3c(cc21)C(=O)C(Cl)=C(Cl)C3=O [AQ 12]
Rf (reduction factor of the viral titer), HHV-2 [1]: 1 × 10^2 | Rf (reduction factor of the viral titer), HHV-2 ([1]; listed as 12): 10^2 | minimal effective concentration [1]: 25 µg/mL | IC50 (Vero; [6]): 136 ± 4.4 µM | minimal effective concentration [2]: > 50 µg/mL | IC50 (Jurkat): 27.5 ± 0.6 µM | IC50 (HeLa): 38.5 ± 1.2 µM

heparin [reference compound]
IC50 on Vero cells (Vero; non-tumoral Vero cells, data not shown): > 400 µg/mL

Cc1ccc2[nH]c3c(c2c1)C(=O)c1ccc(CCCC(C)C)cc1C3=O [HetQ 19]
IC50 (Vero; [6]): 212 ± 8.6 µM | IC50 (Jurkat): > 72.4 µM | IC50 (HeLa): 77 ± 1.9 µM

CCn1c(C)c(C(=O)OC)c2c1C(=O)c1cc3c(cc1C2=O)C(C)(C)CCC3 [HetQ 22]
IC50 (Vero; [6]): 183 ± 15.9 µM | IC50 (Jurkat): 71.7 ± 1.8 µM | IC50 (HeLa): 73 ± 1.6 µM

CC(C)CCCc1ccc2c(c1)C(=O)C(Cl)=C(Cl)C2=O [NQ 4]
Rf (reduction factor of the viral titer), HHV-2 [1]: 1 × 10^2 | Rf (reduction factor of the viral titer), HHV-2 ([1]; listed as 4): 10^2 | minimal effective concentration [1]: 12.5 µg/mL | IC50 (Vero; [6]): ≥ 643 µM | IC50 (Vero; non-tumoral Vero cells, data not shown, read-out: IC50 on Vero cells): > 200 µg/mL | EC50 (HHV-1 [3]; Human alphaherpesvirus 1, simultaneous treatment, read-out: EC50, anti-herpetic activity on pre-infective stages, HHV-1): < 0.4 µg/mL and < 1.28 µM | Antiviral activity in post-infection treatment, HHV-1 (HHV-1 [3]; [7]): no activity | Antiviral activity in simultaneous treatment, HHV-1 (HHV-1 [3]; [8]): anti-herpetic activity in all concentrations tested | Rf (reduction factor of the viral titer), HHV-1 [2]: 1 × 10^2 | Rf (reduction factor of the viral titer), HHV-1 ([2]; listed as 4): 10^2 | minimal effective concentration [2]: 6.25 µg/mL | EC50 (HHV-2; Human alphaherpesvirus 2, simultaneous treatment, read-out: EC50, anti-herpetic activity on pre-infective stages, HHV-2): < 0.4 µg/mL and < 1.28 µM | Antiviral activity in post-infection treatment, HHV-2 (HHV-2; [7]): no activity | Antiviral activity in simultaneous treatment, HHV-2 (HHV-2; [8]): anti-herpetic activity in all concentrations tested | IC50 (Jurkat): 36.3 ± 2 µM | IC50 (HeLa): 46.6 ± 3.3 µM | Effect on HHV-1 viral entry (HHV-1 [4]): not significant | Antiviral activity in post-infection treatment, DENV-2 (DENV-2; post-infective stages, ribavirin 3.7 µg/mL): no activity | Concentration showing antiviral activity against DENV-2 (DENV-2; pre-infective stages): 5.1 µM | Concentration showing significant antiviral activity against DENV-2 (DENV-2; simultaneous treatment (pre-infective stages), tested 0.4–1.6 µg/mL): 1.6 µg/mL | EC50 (HHV-1 [5]): 0.38 µM | EC50 (HHV-1 [5]; 2 h at 4 °C, 0.1–0.8 µg/mL): 0.12 µg/mL

Cc1c2c(nc3ccccc13)C(=O)c1cc(CCCC(C)C)ccc1C2=O [HetQ 21]
IC50 (Jurkat): > 69.9 µM | IC50 (HeLa): > 69.9 µM
